Key:
[1] = target: Beta-2 adrenergic receptor (Homo sapiens, UniProt P07550)
[2] = target: Voltage-dependent L-type calcium channel subunit alpha-1C (Rattus norvegicus, UniProt P22002); type: functional
D(1A) dopamine receptor = D(1A) dopamine receptor (Homo sapiens, UniProt P21728); type: functional, cell-based
[3] = target: Gamma-aminobutyric acid receptor subunit alpha-1 (Rattus norvegicus, UniProt P62813)
Histamine H1 receptor = Histamine H1 receptor (Homo sapiens, UniProt P35367)
[4] = target: T1, 5-hydroxytryptamine receptor 1A (Homo sapiens, UniProt P08908); type: functional, cell-based
T1 sequence (P08908 whole entry): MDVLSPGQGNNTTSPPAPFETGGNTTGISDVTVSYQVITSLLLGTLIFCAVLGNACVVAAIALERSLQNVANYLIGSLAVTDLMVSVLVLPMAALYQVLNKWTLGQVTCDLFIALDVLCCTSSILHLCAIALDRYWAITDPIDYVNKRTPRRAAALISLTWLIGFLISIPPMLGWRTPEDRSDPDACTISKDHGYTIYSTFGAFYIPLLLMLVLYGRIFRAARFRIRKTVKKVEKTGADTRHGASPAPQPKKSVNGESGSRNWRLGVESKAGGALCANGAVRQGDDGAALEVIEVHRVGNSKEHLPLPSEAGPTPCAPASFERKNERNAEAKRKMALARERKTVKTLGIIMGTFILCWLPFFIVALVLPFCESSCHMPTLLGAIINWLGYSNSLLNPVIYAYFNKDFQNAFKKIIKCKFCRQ

[5] = target: T2, 5-hydroxytryptamine receptor 2B (Homo sapiens, UniProt P41595); type: functional, cell-based
T2 sequence (P41595 whole entry): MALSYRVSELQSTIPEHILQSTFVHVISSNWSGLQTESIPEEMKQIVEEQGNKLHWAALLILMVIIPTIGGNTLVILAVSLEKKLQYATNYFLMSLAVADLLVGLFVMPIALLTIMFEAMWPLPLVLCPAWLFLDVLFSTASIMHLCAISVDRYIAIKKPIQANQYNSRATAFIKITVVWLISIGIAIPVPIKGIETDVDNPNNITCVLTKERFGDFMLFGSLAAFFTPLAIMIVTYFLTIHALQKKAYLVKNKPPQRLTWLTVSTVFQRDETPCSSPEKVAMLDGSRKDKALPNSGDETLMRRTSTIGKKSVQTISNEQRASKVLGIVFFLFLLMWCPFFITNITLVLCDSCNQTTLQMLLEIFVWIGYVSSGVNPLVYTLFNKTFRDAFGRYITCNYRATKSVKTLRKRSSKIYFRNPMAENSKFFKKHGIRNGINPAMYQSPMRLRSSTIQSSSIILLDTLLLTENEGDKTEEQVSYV

[6] = target: T3, 5-hydroxytryptamine receptor 2C (Homo sapiens, UniProt P28335)
T3 sequence (P28335 whole entry): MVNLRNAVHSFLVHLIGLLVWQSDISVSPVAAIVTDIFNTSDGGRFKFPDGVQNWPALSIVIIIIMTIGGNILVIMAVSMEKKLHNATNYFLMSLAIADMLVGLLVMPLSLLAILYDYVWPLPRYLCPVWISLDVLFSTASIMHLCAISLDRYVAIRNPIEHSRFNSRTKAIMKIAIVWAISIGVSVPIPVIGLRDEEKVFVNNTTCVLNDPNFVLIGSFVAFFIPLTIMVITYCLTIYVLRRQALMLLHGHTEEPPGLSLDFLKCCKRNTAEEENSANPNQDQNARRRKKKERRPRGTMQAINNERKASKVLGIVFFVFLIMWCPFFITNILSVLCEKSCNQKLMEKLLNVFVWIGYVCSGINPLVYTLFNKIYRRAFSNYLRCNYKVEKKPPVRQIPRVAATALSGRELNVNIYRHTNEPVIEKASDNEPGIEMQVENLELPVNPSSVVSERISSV

[7] = target: T4, Alpha-1A adrenergic receptor (Homo sapiens, UniProt P35348); type: functional, cell-based
T4 sequence (P35348 whole entry): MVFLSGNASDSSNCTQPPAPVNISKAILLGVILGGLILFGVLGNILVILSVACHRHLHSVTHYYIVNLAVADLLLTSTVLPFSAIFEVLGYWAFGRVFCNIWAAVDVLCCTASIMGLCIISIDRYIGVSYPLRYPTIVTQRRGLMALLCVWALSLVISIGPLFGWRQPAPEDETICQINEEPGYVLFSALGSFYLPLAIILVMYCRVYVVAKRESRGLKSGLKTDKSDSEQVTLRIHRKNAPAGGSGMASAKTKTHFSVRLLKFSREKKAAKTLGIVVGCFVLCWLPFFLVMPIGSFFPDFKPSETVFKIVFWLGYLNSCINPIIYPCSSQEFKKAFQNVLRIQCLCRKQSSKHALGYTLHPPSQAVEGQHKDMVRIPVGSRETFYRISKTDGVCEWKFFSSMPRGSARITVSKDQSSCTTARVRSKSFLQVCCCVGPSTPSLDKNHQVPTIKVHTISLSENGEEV

Prothrombin = Prothrombin (Homo sapiens, UniProt P00734); type: functional
[8] = target: T1, 5-hydroxytryptamine receptor 1A
[9] = target: T2, 5-hydroxytryptamine receptor 2B; type: functional, cell-based; remark: listed apart in the source
[10] = target: Voltage-gated inwardly rectifying potassium channel KCNH2 (Homo sapiens, UniProt Q12809); type: functional; settings: read-out: AC50
Progesterone receptor = target: T5, Progesterone receptor (Homo sapiens, UniProt P06401)
T5 sequence (P06401 whole entry): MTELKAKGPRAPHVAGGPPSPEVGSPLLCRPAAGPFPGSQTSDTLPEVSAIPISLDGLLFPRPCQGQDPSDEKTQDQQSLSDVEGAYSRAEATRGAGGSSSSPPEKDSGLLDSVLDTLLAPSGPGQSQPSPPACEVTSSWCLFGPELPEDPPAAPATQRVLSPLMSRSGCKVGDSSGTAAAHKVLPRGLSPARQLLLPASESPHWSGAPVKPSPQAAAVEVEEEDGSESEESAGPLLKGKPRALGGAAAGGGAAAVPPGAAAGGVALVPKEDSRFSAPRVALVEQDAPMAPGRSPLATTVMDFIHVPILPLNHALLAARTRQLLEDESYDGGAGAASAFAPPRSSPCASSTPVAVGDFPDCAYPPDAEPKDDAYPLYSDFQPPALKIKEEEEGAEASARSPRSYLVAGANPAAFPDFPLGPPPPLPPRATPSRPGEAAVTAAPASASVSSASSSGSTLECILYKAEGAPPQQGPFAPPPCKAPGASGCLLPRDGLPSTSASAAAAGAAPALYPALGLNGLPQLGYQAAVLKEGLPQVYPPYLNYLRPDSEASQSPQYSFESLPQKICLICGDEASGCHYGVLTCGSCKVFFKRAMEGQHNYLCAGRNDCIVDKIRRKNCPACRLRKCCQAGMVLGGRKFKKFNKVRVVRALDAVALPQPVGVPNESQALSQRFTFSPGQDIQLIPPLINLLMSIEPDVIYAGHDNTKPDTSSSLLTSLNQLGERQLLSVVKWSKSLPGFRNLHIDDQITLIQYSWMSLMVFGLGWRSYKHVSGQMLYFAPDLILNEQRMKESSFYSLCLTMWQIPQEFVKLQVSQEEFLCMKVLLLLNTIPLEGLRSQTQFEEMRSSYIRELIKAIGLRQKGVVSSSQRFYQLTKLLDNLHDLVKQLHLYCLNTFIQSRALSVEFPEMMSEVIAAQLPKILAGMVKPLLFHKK
Also: assay procedure not described here.

Chain of Voltage-dependent L-type calcium channel subunit alpha-1C (P22002 whole entry): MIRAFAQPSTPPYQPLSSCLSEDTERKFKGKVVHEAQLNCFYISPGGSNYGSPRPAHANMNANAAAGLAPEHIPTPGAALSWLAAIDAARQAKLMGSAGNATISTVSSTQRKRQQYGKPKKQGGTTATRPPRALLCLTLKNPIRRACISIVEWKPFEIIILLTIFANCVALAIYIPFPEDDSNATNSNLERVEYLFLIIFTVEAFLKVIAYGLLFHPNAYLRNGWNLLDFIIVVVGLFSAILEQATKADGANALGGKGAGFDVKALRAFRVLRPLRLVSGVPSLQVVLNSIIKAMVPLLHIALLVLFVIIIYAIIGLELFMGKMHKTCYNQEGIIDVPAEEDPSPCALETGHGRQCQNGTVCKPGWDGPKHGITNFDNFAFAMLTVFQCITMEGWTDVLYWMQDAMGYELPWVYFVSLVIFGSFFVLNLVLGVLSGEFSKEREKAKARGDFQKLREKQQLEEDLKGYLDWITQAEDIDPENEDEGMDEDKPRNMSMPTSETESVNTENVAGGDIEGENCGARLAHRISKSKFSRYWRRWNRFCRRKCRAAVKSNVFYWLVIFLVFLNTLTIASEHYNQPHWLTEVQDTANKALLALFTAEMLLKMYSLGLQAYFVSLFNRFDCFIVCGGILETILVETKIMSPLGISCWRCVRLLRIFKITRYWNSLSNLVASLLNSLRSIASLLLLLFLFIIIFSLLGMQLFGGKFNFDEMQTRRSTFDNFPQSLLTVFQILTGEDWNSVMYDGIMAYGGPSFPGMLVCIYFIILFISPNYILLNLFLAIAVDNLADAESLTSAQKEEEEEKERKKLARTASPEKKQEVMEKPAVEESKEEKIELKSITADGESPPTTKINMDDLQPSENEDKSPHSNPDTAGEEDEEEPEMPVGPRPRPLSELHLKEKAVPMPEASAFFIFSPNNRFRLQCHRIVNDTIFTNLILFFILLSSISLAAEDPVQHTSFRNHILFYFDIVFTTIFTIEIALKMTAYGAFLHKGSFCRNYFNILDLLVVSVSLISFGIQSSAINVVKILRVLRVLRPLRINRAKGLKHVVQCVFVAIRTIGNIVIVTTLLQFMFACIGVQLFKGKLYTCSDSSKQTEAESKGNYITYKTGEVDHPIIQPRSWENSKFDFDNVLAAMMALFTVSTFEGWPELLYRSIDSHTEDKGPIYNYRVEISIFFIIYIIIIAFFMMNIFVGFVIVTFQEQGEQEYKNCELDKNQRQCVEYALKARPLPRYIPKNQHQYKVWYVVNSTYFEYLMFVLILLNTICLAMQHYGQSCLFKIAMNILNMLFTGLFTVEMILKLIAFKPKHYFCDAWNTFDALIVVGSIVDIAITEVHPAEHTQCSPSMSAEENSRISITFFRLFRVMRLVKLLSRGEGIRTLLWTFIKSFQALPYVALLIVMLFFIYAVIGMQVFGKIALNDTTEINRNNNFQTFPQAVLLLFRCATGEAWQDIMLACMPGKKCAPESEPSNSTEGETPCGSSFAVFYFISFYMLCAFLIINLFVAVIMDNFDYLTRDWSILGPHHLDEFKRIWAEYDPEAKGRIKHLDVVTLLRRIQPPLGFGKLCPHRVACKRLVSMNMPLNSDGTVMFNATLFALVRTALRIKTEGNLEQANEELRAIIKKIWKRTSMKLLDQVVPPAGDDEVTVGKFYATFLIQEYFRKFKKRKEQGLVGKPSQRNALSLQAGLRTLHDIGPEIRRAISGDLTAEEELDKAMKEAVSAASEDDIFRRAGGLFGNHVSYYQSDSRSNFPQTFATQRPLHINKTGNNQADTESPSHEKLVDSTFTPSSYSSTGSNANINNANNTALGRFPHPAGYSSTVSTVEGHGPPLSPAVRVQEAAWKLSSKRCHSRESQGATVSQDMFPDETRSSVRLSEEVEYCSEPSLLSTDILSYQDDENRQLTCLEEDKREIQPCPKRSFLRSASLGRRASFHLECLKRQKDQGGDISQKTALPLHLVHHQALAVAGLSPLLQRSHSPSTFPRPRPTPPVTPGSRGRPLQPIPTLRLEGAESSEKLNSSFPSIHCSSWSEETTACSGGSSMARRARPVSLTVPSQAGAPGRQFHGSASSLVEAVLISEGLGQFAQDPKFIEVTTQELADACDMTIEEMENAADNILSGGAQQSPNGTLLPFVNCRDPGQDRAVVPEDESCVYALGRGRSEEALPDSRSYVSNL
Chain of Gamma-aminobutyric acid receptor subunit alpha-1 (P62813 whole entry): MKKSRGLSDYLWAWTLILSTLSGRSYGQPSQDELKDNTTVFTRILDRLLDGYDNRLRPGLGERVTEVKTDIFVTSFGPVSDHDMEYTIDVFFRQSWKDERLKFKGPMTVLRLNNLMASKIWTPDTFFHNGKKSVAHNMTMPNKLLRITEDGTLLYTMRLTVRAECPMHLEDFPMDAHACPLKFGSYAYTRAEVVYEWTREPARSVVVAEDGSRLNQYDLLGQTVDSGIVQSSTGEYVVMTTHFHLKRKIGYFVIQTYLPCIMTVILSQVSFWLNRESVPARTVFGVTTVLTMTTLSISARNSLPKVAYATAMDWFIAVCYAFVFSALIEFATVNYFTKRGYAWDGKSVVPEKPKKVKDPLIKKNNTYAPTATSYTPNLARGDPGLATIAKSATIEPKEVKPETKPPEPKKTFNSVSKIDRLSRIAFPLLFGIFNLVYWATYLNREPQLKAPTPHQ
Chain of D(1A) dopamine receptor (P21728 whole entry): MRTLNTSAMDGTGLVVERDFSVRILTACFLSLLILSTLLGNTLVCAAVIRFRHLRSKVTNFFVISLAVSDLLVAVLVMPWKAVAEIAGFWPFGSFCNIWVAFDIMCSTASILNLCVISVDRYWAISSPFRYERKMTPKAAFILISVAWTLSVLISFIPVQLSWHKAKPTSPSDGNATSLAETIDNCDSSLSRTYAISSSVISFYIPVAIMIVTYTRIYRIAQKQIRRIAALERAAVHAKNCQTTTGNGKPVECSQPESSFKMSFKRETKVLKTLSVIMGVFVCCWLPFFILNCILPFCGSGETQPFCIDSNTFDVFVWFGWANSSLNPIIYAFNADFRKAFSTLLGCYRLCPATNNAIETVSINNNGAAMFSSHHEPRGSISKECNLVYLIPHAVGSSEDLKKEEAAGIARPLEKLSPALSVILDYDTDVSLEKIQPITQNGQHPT
Chain of Histamine H1 receptor (P35367 whole entry): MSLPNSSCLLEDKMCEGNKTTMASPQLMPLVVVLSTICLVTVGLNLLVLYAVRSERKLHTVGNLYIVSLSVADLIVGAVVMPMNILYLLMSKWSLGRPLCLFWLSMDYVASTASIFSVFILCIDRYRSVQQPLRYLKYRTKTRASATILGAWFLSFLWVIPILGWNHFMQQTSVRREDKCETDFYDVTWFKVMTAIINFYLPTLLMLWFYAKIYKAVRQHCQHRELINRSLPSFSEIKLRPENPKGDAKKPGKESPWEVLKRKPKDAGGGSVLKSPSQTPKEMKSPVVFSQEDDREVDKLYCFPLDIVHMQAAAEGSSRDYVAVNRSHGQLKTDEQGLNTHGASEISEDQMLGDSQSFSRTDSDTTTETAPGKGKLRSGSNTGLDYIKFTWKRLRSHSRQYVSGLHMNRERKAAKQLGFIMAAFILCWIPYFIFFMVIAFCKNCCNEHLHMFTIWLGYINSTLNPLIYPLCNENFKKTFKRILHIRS
Chain of Beta-2 adrenergic receptor (P07550 whole entry): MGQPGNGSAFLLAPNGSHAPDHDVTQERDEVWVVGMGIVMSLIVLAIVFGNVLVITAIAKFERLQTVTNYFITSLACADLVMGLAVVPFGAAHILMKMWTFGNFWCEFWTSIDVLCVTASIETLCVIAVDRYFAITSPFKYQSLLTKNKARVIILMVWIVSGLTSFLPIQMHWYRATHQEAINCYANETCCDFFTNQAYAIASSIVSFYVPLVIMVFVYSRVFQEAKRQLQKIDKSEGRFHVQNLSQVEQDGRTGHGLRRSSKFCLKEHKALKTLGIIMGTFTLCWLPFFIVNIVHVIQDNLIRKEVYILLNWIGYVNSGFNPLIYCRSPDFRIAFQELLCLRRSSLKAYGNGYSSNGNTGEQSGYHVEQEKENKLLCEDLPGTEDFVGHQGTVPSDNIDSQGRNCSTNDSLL

Compound | AC50 [1] [µM] | AC50 [2] [µM] | AC50 (D(1A) dopamine receptor) [µM] | AC50 [3] [µM] | AC50 (Histamine H1 receptor) [µM] | AC50 [4] [µM] | AC50 [5] [µM] | AC50 [6] [µM] | AC50 [7] [µM] | AC50 (Prothrombin) [µM] | AC50 [8] [µM] | AC50 [9] [µM] | AC50 [10] [µM] | AC50 (Progesterone receptor) [µM]
CCN(CC)C(=O)C1(c2ccccc2)CC1CN (centres undefined) | > 30 | > 30 | > 30 | > 30 | > 30 | > 30 | > 30 | 0.59 |  |  |  |  |  | 
CN(C)C(=O)Oc1cccc([N+](C)(C)C)c1 [NEOSTIGMINE] |  |  |  |  |  |  |  |  | > 30 | > 30 | > 30 | > 30 | > 30 | > 30

Reference: ChEMBL document CHEMBL5291721, “A preclinical secondary pharmacology resource illuminates target-adverse drug reaction associations of marketed drugs” (Nat Commun, 2023)
